# Measurements from patent US20150240204A1, “METHOD FOR POLYCLONAL STIMULATION OF T CELLS BY MOBILE NANOMATRICES” (MILTENYI BIOTEC GMBH, priority 2012, published 2015).
# Tests used:
# Assay type in all cases: cell-based, human
# [1] = system: naive T cells; assay: Expansion of naive T cells, soluble versus nanomatrix-conjugated CD28 in presence of soluble CD3; settings: soluble CD3 alone, day 7
# Procedure: (§1) FIG. 6: Comparison of soluble CD3 or CD28 antibodies to CD3 or CD28 antibodies conjugated to nanomatrices. Naive CD4 and CD8 T cells were isolated and stimulated in vitro in the presence of IL-2 using soluble CD3 (0-10000 ng/mL) w/o CD28 (A) or in the presence of soluble CD28 (200 ng/ml) (B) and compared to CD28 conjugated to nanomatrix (200 ng/ml) and analysed for early activation markers CD25/CD69 on day 5 or for expansion (C) on day 7. 2 donors were analysed in duplicates.
# We also tested the effect of conjugation of CD28 antibodies to the nanomatrix. Since the effects of costimulation are best visualized under suboptimal CD3 stimulation, we titrated CD28 either soluble or conjugated to the nanomatrix in the presence of soluble CD3 to a culture of naïve T cells. […] In the presence of soluble CD28 however a 2-6 fold expansion was detectable but only at the highest tested dose of CD28 (10000 ng/ml).
# [2] = system: CD8+ T cell subsets and PBMC from melanoma patients; assay: Fold expansion of MART-1 TCR transduced cultures; settings: IL2, day 13-15 after stimulation
# Text: CD8^+ T cell subsets from freshly isolated PBMC from melanoma patients were isolated and the stimulated with coated CD3 plus soluble CD28 (CD3+CD28 in the graph) or with CD3/CD28/CD2 coated MACSiBeads (MACSiBeads in the graph) or with CD3/CD28 Nanomatrix in the presence of IL2. After 2 days of stimulation cells have been transduced to express MART-1 TCR. In the graph is reported the fold expansion of each culture at day 13-15 after stimulation.
# One important application for activating and expanding T cells and in particular purified cell subsets is their genetic manipulation, e.g. to introduce a certain antigen receptor with specificity for tumor antigens. We have used nanomatrices to activate purified naïve (TN, CD62L+CD45RA+), central memory (TCM, CD62L+CD45RA−) and effector (TEM, CD62L−CD45RA−) T cells and transduced them using a retroviral vector expressing a TCR specific for MART-1, a tumor antigen. To test the relative frequency of transgene expression in these T cell subsets we performed MHC-peptide Class I tetramer staining. All T cell subsets are efficiently transduced (>50%) independent on the stimulatory conditions we tested (FIG. 7). We also compared the in vitro expansion of the transduced T cells. As shown in FIG. 8 after 10 days we observed no differences with regard to expansion of the three subsets under all conditions. […]
# [3] = system: naive CD4 and CD8 T cells; assay: Induction of early activation markers CD25/CD69, soluble versus nanomatrix-conjugated CD3
# Procedure: as §1
# IL-2 was added to all cultures. […] In contrast the CD3 coated nanomatrix (100 ng/ml CD3) induced CD25/CD69 expression in 40-70% of the cells.
substance,measurement,setting,value
"soluble CD3: soluble anti-CD3 antibody (CD3 antibodies, clone OKT3)",expansion of naive T cells,[1],did not induce any expansion
same,fold expansion,[2],57.61±17.75
same,up-regulation of early activation markers CD25 and CD69,"[3]; 10-10000 ng/ml, without CD28, IL-2, day 5",did not induce any significant up-regulation
same,CD25/CD69 expression,"[3]; highest tested doses 100-10000 ng/ml, with soluble CD28 200 ng/ml, IL-2, day 5",20-40 % of the cells
